Laboratory results from the supplement of paper PMC10307832.

Tests used:
Assay in all cases: relative viability (nuclei count vs DMSO), 5 days (fraction); higher = more cells survive
[1] = compound: C1/C(=C\C2=CC=CS2)/C(=O)/C(=C/C3=CC=CS3)/C1 + Nc1nc2[nH]cc(CCc3ccc(C(=O)N[C@@H](CCC(=O)O)C(=O)O)cc3)c2c(=O)[nH]1 [Pemetrexed] (partner 0.2 µM)
Method in brief: (§1)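 Lung cancer cell lines, seeded in 1536-well plates, were treated the following day by pin tool with a single drug or with five library-drug doses (not always all listed) in √10 steps on top of a fixed anchor-drug dose. Cells were fixed and nuclei stained in one step after 5 days, and nuclei were counted. Relative viability is the nuclei count for treated wells divided by that for vehicle wells, reported as medians of duplicate plates.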

[2] = compound: C1/C(=C\C2=CC=CS2)/C(=O)/C(=C/C3=CC=CS3)/C1 + O=C(CCCCCCC(=O)Nc1ccccc1)NO [Vorinostat] (partner 1 µM)
Method in brief: as §1

[3] = compound: C[C@]12O[C@H](C[C@]1(O)CO)n1c3ccccc3c3c4c(c5c6ccccc6n2c5c31)CNC4=O [Lestaurtinib] + Cc1cc(Nc2cc(N3CCN(C)CC3)nc(Sc3ccc(NC(=O)C4CC4)cc3)n2)n[nH]1 [Tozasertib] (partner 0.1 µM)
Method in brief: as §1

Lestaurtinib + Olaparib = compound: C[C@]12O[C@H](C[C@]1(O)CO)n1c3ccccc3c3c4c(c5c6ccccc6n2c5c31)CNC4=O [Lestaurtinib] + O=C(c1cc(Cc2n[nH]c(=O)c3ccccc23)ccc1F)N1CCN(C(=O)C2CC2)CC1 [Olaparib] (partner 8 µM)
Method in brief: as §1

| Cell Line | relative viability ([1]; first compound 0.2 µM) | relative viability ([1]; first compound 0.6325 µM) | relative viability ([1]; first compound 2 µM) | relative viability ([1]; first compound 6.325 µM) | relative viability ([1]; first compound 20 µM) | relative viability ([2]; first compound 0.2 µM) | relative viability ([2]; first compound 0.6325 µM) | relative viability ([2]; first compound 2 µM) | relative viability ([2]; first compound 6.325 µM) | relative viability ([2]; first compound 20 µM) | relative viability ([3]; first compound 0.005 µM) | relative viability ([3]; first compound 0.01581 µM) | relative viability ([3]; first compound 0.05 µM) | relative viability ([3]; first compound 0.1581 µM) | relative viability ([3]; first compound 0.5 µM) | relative viability (Lestaurtinib + Olaparib; first compound 0.01581 µM) | relative viability (Lestaurtinib + Olaparib; first compound 0.1581 µM) | relative viability (Lestaurtinib + Olaparib; first compound 0.5 µM) | relative viability (Lestaurtinib + Olaparib; first compound 0.005 µM) | relative viability (Lestaurtinib + Olaparib; first compound 0.05 µM) |
| --- | --- | --- | --- | --- | --- | --- | --- | --- | --- | --- | --- | --- | --- | --- | --- | --- | --- | --- | --- | --- |
| NCI-H1648 | 0.859 | 0.718 | 0.79 | 0.609 | 0.569 | 0.435 | 0.408 | 0.603 | 0.366 | 0.297 | 0.377 | 0.649 | 0.391 | 0.487 | 0.49 | 0.979 | 1.08 | 0.478 |  |  |
| NCI-H1623 |  |  |  |  |  |  |  |  |  |  | 0.42 | 0.722 | 0.415 | 0.418 | 0.424 |  |  |  |  |  |
| NCI-H3122 | 0.195 | 0.213 | 0.206 | 0.191 | 0.206 | 1.08 | 1.08 | 0.907 | 0.639 | 0.708 | 0.56 | 0.553 | 0.421 | 0.366 | 0.176 | 0.637 | 0.598 | 0.5 | 0.862 | 0.552 |
| NCI-H2347 | 0.44 | 0.429 | 0.478 | 0.448 | 0.426 | 0.627 | 0.561 | 0.601 | 0.61 | 0.667 | 1.15 | 0.64 | 0.493 | 0.412 | 0.537 | 0.639 | 0.529 | 0.607 | 0.567 | 0.581 |
| HCC-44 | 0.64 | 0.688 | 0.613 | 0.55 | 0.673 | 1.09 | 1.08 | 1.01 | 0.995 | 1.03 | 0.882 | 1.08 | 0.996 | 1.48 | 0.354 | 0.984 | 1.16 | 0.675 | 0.994 | 0.96 |
| HCC-78 | 0.923 | 0.817 | 0.862 | 0.921 | 0.862 | 0.51 | 0.401 | 0.441 | 0.425 | 0.385 | 0.434 | 0.363 | 0.436 | 0.353 | 0.183 | 0.835 | 0.566 | 0.385 | 0.843 | 0.765 |
| COR-L23 | 0.2 | 0.193 | 0.196 | 0.182 | 0.199 | 0.475 | 0.597 | 0.477 | 0.348 | 0.451 | 0.197 | 0.229 | 0.184 | 0.174 | 0.184 | 0.428 | 0.339 | 0.156 | 0.374 | 0.37 |
| NCI-H1993 | 0.669 | 0.593 | 0.539 | 0.551 | 0.472 | 0.729 | 0.701 | 0.972 | 0.702 | 0.561 | 0.636 | 0.545 | 0.57 | 0.54 | 0.529 | 1.16 | 1.04 | 0.463 | 0.76 | 1.14 |
| NCI-H2405 | 1.08 | 0.96 | 1.2 | 1.01 | 1.04 | 0.991 | 1.02 | 1.08 | 0.876 | 1.14 | 0.797 | 0.814 | 0.78 | 0.511 | 0.271 | 1.01 | 0.846 | 0.486 | 0.98 | 0.913 |
| NCI-H2126 | 0.677 | 0.681 | 0.789 | 0.58 | 0.714 | 0.742 | 0.774 | 0.809 | 0.717 | 0.781 | 0.919 | 0.963 | 0.802 | 0.699 | 0.48 | 0.971 | 0.852 | 0.842 | 1.03 | 0.812 |
| NCI-H1944 | 0.619 | 0.591 | 0.603 |  | 0.572 | 0.619 | 0.535 | 0.559 |  | 0.528 | 0.262 | 0.276 | 0.234 | 0.236 | 0.201 | 0.479 | 0.419 | 0.344 | 0.437 | 0.34 |
| NCI-H2342 | 0.781 | 0.764 | 0.838 | 0.718 | 0.747 | 0.667 | 0.997 | 0.85 | 0.757 | 0.683 | 0.528 | 0.502 | 0.538 | 0.418 | 0.418 | 0.432 | 0.43 | 0.501 | 0.44 | 0.439 |
| NCI-H358 | 0.213 | 0.207 | 0.171 | 0.191 | 0.177 | 0.8 | 0.814 | 0.704 | 0.511 | 0.773 | 0.103 | 0.0848 | 0.0849 | 0.0845 | 0.0896 | 0.396 | 0.322 | 0.141 | 0.548 | 0.408 |
| NCI-H1734 | 0.439 | 0.433 | 0.457 | 0.37 | 0.426 | 0.82 | 0.875 | 0.837 | 0.745 | 0.865 | 0.289 | 0.153 | 0.247 | 0.214 | 0.178 | 0.626 | 0.533 | 0.271 | 0.647 | 0.578 |
| NCI-H727 |  |  |  |  |  | 1.23 | 1.23 | 1.28 |  | 1.12 | 0.598 | 0.728 | 0.63 | 0.584 | 0.41 | 0.604 |  | 0.678 | 0.812 | 0.731 |
| ABC-1 |  |  |  |  |  | 1.17 | 0.964 | 1.5 | 0.724 | 1.24 | 0.208 | 0.175 | 0.134 | 0.155 | 0.2 | 0.785 | 1.13 | 0.937 | 0.735 | 0.902 |
| NCI-H1792 | 0.931 | 0.875 | 0.882 | 0.74 | 0.767 |  |  |  |  |  |  |  |  |  |  | 0.495 | 0.267 | 0.164 | 0.593 | 0.434 |
| NCI-H1563 | 0.73 | 0.801 | 0.912 | 0.798 | 0.763 |  |  |  |  |  |  |  |  |  |  |  |  |  |  |  |
| EBC-1 |  |  |  |  |  |  |  |  |  |  |  |  |  |  |  | 0.794 | 0.639 | 0.45 | 0.711 | 0.695 |
| IA-LM |  |  |  |  |  | 0.959 | 1.09 | 1.01 | 0.885 | 0.852 |  |  |  |  |  | 0.944 | 0.819 | 0.774 | 0.835 | 0.991 |
| NCI-H1703 |  |  |  |  |  |  |  |  |  |  |  |  |  |  |  | 0.285 | 0.212 | 0.123 | 0.437 | 0.145 |
